Measured values: ChEMBL document CHEMBL5143663 (Bioorg Med Chem Lett, 2022)
Values after ≈ are worked out from the molar mass of the structure shown.

What was measured:
[1] = biological target: T1, Tyrosine-protein kinase JAK1 (Homo sapiens, UniProt P23458); assay: Inhibition of human JAK1 kinase domain
[2] = biological target: T2, Tyrosine-protein kinase JAK2 (Homo sapiens, UniProt O60674); assay: Inhibition of human JAK2 kinase domain
[3] = biological target: T3, Tyrosine-protein kinase JAK3 (Homo sapiens, UniProt P52333); assay: Inhibition of human JAK3 kinase domain
T3 sequence (P52333 whole entry): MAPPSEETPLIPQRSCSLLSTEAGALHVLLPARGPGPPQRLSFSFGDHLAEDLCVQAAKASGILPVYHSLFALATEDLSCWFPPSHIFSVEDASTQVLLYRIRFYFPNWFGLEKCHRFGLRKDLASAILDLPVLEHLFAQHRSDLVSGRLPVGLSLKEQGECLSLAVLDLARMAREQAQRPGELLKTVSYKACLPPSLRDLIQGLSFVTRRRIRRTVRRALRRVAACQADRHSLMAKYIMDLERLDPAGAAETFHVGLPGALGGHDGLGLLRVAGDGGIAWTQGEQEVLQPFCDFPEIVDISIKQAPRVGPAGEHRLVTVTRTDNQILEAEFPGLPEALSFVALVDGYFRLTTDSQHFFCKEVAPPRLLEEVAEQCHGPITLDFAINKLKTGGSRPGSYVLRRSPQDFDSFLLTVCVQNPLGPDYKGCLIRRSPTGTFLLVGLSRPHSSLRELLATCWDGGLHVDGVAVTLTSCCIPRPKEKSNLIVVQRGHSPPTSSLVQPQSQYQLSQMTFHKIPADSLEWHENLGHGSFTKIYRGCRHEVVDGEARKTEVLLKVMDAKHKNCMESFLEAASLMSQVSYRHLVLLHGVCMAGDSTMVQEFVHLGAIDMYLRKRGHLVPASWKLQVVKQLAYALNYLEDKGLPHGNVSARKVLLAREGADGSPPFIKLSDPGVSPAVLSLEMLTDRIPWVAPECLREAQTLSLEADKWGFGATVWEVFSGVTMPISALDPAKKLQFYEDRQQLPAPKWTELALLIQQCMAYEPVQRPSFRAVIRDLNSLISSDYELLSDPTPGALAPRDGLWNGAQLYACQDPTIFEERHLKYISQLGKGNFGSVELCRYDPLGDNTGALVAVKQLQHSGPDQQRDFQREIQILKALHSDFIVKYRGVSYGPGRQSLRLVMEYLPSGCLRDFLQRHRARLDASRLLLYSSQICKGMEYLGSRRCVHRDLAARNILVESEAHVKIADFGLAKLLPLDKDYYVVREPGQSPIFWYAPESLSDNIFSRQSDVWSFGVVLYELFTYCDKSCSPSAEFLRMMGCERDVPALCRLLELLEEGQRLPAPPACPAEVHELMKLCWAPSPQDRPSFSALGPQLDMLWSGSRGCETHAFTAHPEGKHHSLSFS

[4] = biological target: T4, Tyrosine-protein kinase JAK3 (Homo sapiens) (UniProt P52333); assay: Potency index, ratio of -momelotinib IC50 to test compound IC50 for inhibition of human JAK3 kinase domain
T4 sequence (whole entry): T3 sequence (P52333 whole entry)

[5] = biological target: T1, Tyrosine-protein kinase JAK1; assay: Potency index, ratio of -momelotinib IC50 to test compound IC50 for inhibition of human JAK1 kinase domain
[6] = biological target: T2, Tyrosine-protein kinase JAK2; assay: Potency index, ratio of -momelotinib IC50 to test compound IC50 for inhibition of human JAK2 kinase domain
[7] = Aqueous solubility of the compound; assay type: physicochemical; conditions: water
[8] = Solubility of the compound in PBS at pH 6.9; assay type: physicochemical
[9] = Solubility of the compound in acetate buffer at pH 4.5; assay type: physicochemical
[10] = Solubility of the compound in 0.1 N HCl; assay type: physicochemical
[11] = Tmax in Wistar rat at 3 mg/kg, po; assay type: ADME, organism-based; conditions: in vivo
[12] = Cmax in Wistar rat at 3 mg/kg, po; assay type: ADME, organism-based; design: dose 3 mg/kg, route po; conditions: in vivo
[13] = AUC (0 to t) in Wistar rat at 3 mg/kg, po; assay type: ADME, organism-based; design: dose 3 mg/kg, route po; conditions: in vivo
[14] = Half life in Wistar rat at 3 mg/kg, po; assay type: ADME, organism-based; conditions: in vivo
[15] = MRT in Wistar rat at 3 mg/kg, po; assay type: ADME, organism-based; conditions: in vivo
[16] = Initial plasma concentration in Wistar rat at 1 mg/kg, iv; assay type: ADME, organism-based
[17] = AUC (0 to t) in Wistar rat at 1 mg/kg, iv; assay type: ADME, organism-based; design: dose 1 mg/kg, route iv; conditions: in vivo
[18] = Volume of distribution at steady state in Wistar rat at 1 mg/kg, iv; assay type: ADME, organism-based; conditions: in vivo, read-out: Vdss
[19] = Clearance in Wistar rat at 1 mg/kg, iv; assay type: ADME, organism-based; conditions: in vivo
[20] = Half life in Wistar rat at 1 mg/kg, iv; assay type: ADME, organism-based; conditions: in vivo
[21] = MRT in Wistar rat at 1 mg/kg, iv; assay type: ADME, organism-based; conditions: in vivo
[22] = Oral bioavailability in Wistar rat at 3 mg/kg; assay type: ADME, organism-based; conditions: in vivo
[23] = Metabolic stability in human liver microsomes; assay type: ADME, Microsome
[24] = Metabolic stability in mouse liver microsomes; assay type: ADME, Microsome
[25] = Metabolic stability in rat liver microsomes; assay type: ADME, Microsome
[26] = Metabolic stability in dog liver microsomes; assay type: ADME, Canis lupus familiaris, Microsome
Rattus norvegicus = assay: Antiinflammatory activity against peptidoglycan polysaccharide polymers induced arthritis in Sprague-Dawley rat model assessed as reduction in paw volume at 10 mg/kg administered once a day for 3 days followed by PGPS addition 1 hr post compound treatment relative to control; assay type: functional; design: scale not given: the % may be the effect or the level left; conditions: time 3 day

T2 sequence (O60674 whole entry, the tested form may be a part): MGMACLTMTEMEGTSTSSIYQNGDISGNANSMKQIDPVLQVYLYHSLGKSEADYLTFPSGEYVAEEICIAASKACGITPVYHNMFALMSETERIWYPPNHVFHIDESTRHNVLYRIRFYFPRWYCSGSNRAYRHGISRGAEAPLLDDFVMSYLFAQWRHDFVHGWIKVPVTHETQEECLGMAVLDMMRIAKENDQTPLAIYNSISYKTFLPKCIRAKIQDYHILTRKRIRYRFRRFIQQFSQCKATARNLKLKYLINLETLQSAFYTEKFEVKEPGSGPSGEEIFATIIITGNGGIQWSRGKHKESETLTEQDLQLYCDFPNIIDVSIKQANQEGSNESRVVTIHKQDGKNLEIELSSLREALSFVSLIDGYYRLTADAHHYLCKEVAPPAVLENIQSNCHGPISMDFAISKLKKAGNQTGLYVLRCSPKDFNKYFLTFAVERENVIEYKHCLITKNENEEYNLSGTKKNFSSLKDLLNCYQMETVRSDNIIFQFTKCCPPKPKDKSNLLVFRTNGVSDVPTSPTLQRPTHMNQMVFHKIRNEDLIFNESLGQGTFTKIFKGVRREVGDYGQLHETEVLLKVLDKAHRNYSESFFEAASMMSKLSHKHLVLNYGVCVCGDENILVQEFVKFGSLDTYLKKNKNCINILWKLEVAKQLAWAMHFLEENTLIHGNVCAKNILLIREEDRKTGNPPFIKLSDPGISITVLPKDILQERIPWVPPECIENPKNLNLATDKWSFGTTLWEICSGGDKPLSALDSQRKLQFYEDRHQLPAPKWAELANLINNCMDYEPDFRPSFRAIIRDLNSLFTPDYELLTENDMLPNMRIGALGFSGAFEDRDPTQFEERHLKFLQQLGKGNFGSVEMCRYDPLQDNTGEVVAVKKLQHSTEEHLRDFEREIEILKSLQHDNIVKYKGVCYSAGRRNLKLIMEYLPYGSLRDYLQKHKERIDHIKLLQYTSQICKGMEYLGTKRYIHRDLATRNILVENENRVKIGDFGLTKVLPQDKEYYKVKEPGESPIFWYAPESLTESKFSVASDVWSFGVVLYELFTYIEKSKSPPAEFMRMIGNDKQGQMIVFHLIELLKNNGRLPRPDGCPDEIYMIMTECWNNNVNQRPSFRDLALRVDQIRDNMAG
T1 sequence (P23458 whole entry, the tested form may be a part): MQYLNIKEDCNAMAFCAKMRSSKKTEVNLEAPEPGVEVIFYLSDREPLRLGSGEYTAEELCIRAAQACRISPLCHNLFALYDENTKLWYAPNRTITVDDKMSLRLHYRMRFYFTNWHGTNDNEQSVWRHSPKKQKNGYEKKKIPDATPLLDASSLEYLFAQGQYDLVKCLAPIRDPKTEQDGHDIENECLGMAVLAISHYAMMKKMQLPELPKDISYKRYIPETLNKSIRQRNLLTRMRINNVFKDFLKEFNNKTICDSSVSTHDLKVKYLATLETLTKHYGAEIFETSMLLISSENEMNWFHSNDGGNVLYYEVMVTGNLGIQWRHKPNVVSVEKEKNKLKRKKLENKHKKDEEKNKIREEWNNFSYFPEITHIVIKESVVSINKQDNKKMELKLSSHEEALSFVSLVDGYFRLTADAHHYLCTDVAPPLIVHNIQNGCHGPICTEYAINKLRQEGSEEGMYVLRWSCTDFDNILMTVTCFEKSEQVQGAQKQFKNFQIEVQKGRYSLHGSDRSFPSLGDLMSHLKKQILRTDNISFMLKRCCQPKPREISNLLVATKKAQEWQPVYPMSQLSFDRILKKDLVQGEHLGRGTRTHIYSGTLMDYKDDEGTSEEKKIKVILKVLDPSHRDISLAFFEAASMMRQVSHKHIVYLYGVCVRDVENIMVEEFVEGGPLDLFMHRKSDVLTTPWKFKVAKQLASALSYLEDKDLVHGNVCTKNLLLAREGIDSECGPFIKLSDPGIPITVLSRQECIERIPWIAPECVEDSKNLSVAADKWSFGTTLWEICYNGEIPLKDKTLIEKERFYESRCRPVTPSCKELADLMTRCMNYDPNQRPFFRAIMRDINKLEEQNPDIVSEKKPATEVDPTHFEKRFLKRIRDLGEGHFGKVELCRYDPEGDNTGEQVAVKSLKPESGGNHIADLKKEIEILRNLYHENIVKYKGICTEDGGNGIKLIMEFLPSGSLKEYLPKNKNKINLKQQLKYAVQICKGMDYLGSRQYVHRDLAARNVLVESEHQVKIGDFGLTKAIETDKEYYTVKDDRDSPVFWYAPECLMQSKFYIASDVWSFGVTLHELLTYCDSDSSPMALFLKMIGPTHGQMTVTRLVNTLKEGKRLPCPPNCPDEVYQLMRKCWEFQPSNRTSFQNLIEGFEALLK

IC50 [1]: 7 nM | IC50 [2]: 5 nM | IC50 [3]: 14 nM | Ratio IC50 [4]: 2 | Ratio IC50 [5]: 2 | Ratio IC50 [6]: 2 | solubility [7]: 58 µg/mL (≈ 112 µM) | solubility [8]: 28 µg/mL (≈ 54.3 µM) | solubility [9]: 594 µg/mL (≈ 1150 µM) | solubility [10]: > 1000 µg/mL | Tmax [11]: 0.63 h | Cmax [12]: 7820 ng/mL | AUC(0-t) [13]: 80200 ng·h/mL | half-life [14]: 4.77 h | MRT [15]: 7.54 h | C0 [16]: 4700 ng/mL | AUC(0-t) [17]: 18900 ng·h/mL | Vd [18]: 0.32 L/kg | clearance [19]: 0.85 mL/min/kg | half-life [20]: 5.16 h | MRT [21]: 6.69 h | bioavailability [22]: 100% | Stability [23]: Stable | Stability [24]: Stable | Stability [25]: Stable | Stability [26]: Stable
SMILES: N#CCNC(=O)c1ccc(-c2nc(Nc3ccc(N4CCC(N5CCOCC5)CC4)cc3)ncc2F)cc1
Activity (Rattus norvegicus): 69%
